# “Also recorded” adds a separate entry of the source.
# Legend:
# [1] = tested on: MLL cells (MLL-AF9 ALL cells); assay: Secondary transplantation of MLL cells remaining after treatment into neonatal NSG mice; assay type: in vivo, mouse; conditions: cells taken from treated primary recipient, FIG. 7
# Excerpt: Finally, human leukemia cells remaining in the bone marrow were purified by sorting and transplanted to neonatal NSG mice (secondary transplantation).
# MLL cells (MLL-AF9 ALL cells) were transplanted (primary transplant) to an immunodeficient mouse and a treatment with a combination of dexamethasone and RK-20449 was applied. Thereafter, MLL cells were taken from the mouse and transplanted to another immunodeficient mouse (secondary transplantation). The results are shown in the graphs as FIG. 7. The cases treated with dexamethasone alone and RK-20449 alone were used as controls (for comparison).
# [2] = tested on: MLL cells (MLL-AF9 ALL cell) in the bone marrow; assay: Leukemia humanized mouse (MLL-AF9), human leukemia cells in bone marrow (flow cytometry, hCD45/DAB staining); assay type: in vivo; conditions: MLL-AF9 case; after treatment; FIG. 4
# Excerpt: (§1) NOD. Cg-Prkdc^scid Il2rg^tmlWjl/Sz (NOD/SCID/IL2rg^null, NSG) mice were developed by subjecting a complete null mutation in the Il2rg gene locus to back cross with NOD. Cg-Prkdc^scid (NOD/SCID) lineage, in the Jackson Laboratory (Bar Harbor, Me. state, USA) (Shultz, L. D. et al., Multiple defects in innate and adaptive immunologic function in NOD/LtSz-scid mouse. J. Immunol. 154, 180-191 (1995)). The mice were raised by feeding irradiated food and acidified water in the animal facilities of RIKEN and the Jackson Laboratory in accordance with the guideline established by the Institutional Animal Committees and maintained under bacterial flora specified.
# (§2) NSG mice in the neonatal period were exposed to radiation (1.5 G) and then patient-derived MLL cells (MLL-AF9) were transplanted to the mice. After the presence of the human leukemia cells in the peripheral blood was confirmed by flow cytometry based on the presence of hCD45+CD19+, treatment of the mice (leukemia humanized mice) with dexamethasone (70 mg/kg IP daily) and/or RK-20449 (30 mg/kg IP BID, twice a day) or both was started.
# After the treatment, the mice were euthanized and the appearance frequency of human leukemia cells in the bone marrow was determined by flow cytometry. At the same time, one of the femur bones was fixed in PFA and […]-thin sections were prepared. […]
# [3] = tested on: patient-derived MLL cells (MLL-AF9); assay: Leukemia humanized mouse (MLL-AF9), human leukemia cells in peripheral blood; assay type: in vivo; conditions: MLL-AF9 cases in NSG mice; dexamethasone 70 mg/kg IP daily and/or RK-20449 30 mg/kg IP BID; FIG. 1-3
# Excerpt: as §1, §2
smiles,measurement,setting,value
"CN1CCN([C@H]2CC[C@H](n3cc(-c4ccc(Oc5ccccc5)cc4)c4c(N)ncnc43)CC2)CC1 [RK-20449, 7-[trans-4-(4-methyl-1-piperazinyl)cyclohexyl]-5-(4-phenoxyphenyl)-7H-pyrrolo[2,3-d]pyrimidin-4-amine]",MLL cells in secondary transplantation recipient (proliferation after transplantation),[1],MLL cells were present in significantly high percentages
same,"medicinal effect in the bone marrow (appearance frequency of human leukemia cells, flow cytometry)",[2],A sufficient therapeutic effect was not obtained
same,chimerism (percentage) of human leukemia cells in the mouse peripheral blood,[3],not easy to eradicate MLL by single use; also recorded: impossible to expect complete cure of MLL

# — patent publication US10278979B2, “Therapeutic agent for intractable leukemia” (RIKEN, priority 2015, dated 2019)
